# Data taken from patent US12378208B2, “N-substituted oseltamivir derivatives with antimicrobial activity” (THE HONG KONG POLYTECHNIC UNIVERSITY, priority 2019, dated 2025).
# Molecular target: NA from A/H3N2 (Influenza A virus, UniProt O91745)
# Assay: biochemical
# Format: biochemical, seasonal A/H3N2
# NA from A/H3N2, sequence (O91745 whole entry, looked up): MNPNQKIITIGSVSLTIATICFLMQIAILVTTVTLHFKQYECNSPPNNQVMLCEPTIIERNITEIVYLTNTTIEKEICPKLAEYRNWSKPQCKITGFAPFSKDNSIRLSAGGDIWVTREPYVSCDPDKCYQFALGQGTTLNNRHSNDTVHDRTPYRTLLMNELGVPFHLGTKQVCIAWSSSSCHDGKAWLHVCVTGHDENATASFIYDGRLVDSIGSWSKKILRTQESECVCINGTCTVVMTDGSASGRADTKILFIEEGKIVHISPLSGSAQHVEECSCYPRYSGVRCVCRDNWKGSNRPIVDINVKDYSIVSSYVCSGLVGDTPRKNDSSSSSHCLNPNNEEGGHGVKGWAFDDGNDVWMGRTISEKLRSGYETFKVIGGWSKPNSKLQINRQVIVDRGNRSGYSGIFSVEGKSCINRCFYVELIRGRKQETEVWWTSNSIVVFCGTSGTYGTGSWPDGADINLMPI
row,Structure (SMILES),% Inhibition (1 nM)
1,"CCC(CC)O[C@@H]1C=C(C(=O)O)C[C@H](NCc2noc(-c3cccs3)n2)[C@H]1NC(C)=O [Compound S1, (3R,4R,5S)-4-acetamido-3-(pentan-3-yloxy)-5-(((5-(thiophen-2-yl)-1,2,4-oxadiazol-3-yl)methyl)amino)cyclohex-1-ene-1-carboxylic acid]",0.0 ± 2.2%
2,"CCC(CC)O[C@@H]1C=C(C(=O)O)C[C@H](NCc2noc(-c3ccc(C(F)(F)F)cc3)n2)[C@H]1NC(C)=O [Compound S2, (3R,4R,5S)-4-acetamido-3-(pentan-3-yloxy)-5-(((5-(4-(trifluoromethyl)phenyl)-1,2,4-oxadiazol-3-yl)methyl)amino)cyclohex-1-ene-1-carboxylic acid]",8.0 ± 1.7%
3,"CCC(CC)O[C@@H]1C=C(C(=O)O)C[C@H](NCc2noc(-c3ccc(F)cc3)n2)[C@H]1NC(C)=O [Compound S3, (3R,4R,5S)-4-acetamido-5-(((5-(4-fluorophenyl)-1,2,4-oxadiazol-3-yl)methyl)amino)-3-(pentan-3-yloxy)cyclohex-1-ene-1-carboxylic acid]",0.0 ± 3.5%
4,CCC(CC)O[C@@H]1C=C(C(=O)O)C[C@H](NCc2noc(-c3ccccn3)n2)[C@H]1NC(C)=O [Compound S4],17.1 ± 2.0%
5,"CCC(CC)O[C@@H]1C=C(C(=O)O)C[C@H](NCc2noc(-c3ccc(Br)cc3)n2)[C@H]1NC(C)=O [Compound S5, (3R,4R,5S)-4-acetamido-5-(((5-(4-bromophenyl)-1,2,4-oxadiazol-3-yl)methyl)amino)-3-(pentan-3-yloxy)cyclohex-1-ene-1-carboxylic acid]",1.7 ± 2.1%
6,"CCC(CC)O[C@@H]1C=C(C(=O)O)C[C@H](NCc2noc(-c3cccc([N+](=O)[O-])c3)n2)[C@H]1NC(C)=O [Compound S6, (3R,4R,5S)-4-acetamido-5-(((5-(3-nitrophenyl)-1,2,4-oxadiazol-3-yl)methyl)amino)-3-(pentan-3-yloxy)cyclohex-1-ene-1-carboxylic acid]",18.4 ± 3.6%
7,"CCC(CC)O[C@@H]1C=C(C(=O)O)C[C@H](NCc2noc(-c3ccccc3)n2)[C@H]1NC(C)=O [Compound S8, (3R,4R,5S)-4-acetamido-3-(pentan-3-yloxy)-5-(((5-phenyl-1,2,4-oxadiazol-3-yl)methyl)amino)cyclohex-1-ene-1-carboxylic acid]",0.0 ± 2.0%
8,"CCC(CC)O[C@@H]1C=C(C(=O)O)C[C@H](NCc2noc(-c3ccc4ccccc4c3)n2)[C@H]1NC(C)=O [Compound S9, (3R,4R,5S)-4-acetamido-5-(((5-(naphthalen-2-yl)-1,2,4-oxadiazol-3-yl)methyl)amino)-3-(pentan-3-yloxy)cyclohex-1-ene-1-carboxylic acid]",1.5 ± 1.2%
9,"CCC(CC)O[C@@H]1C=C(C(=O)O)C[C@H](NCc2noc(-c3ccccc3C)n2)[C@H]1NC(C)=O [Compound S10, (3R,4R,5S)-4-acetamido-3-(pentan-3-yloxy)-5-(((5-(o-tolyl)-1,2,4-oxadiazol-3-yl)methyl)amino)cyclohex-1-ene-1-carboxylic acid]",0.5 ± 2.0%
10,"CCC(CC)O[C@@H]1C=C(C(=O)O)C[C@H](NCc2noc(-c3cc(OC)c(OC)c(OC)c3)n2)[C@H]1NC(C)=O [Compound S11, (3R,4R,5S)-4-acetamido-3-(pentan-3-yloxy)-5-(((5-(3,4,5-trimethoxyphenyl)-1,2,4-oxadiazol-3-yl)methyl)amino)cyclohex-1-ene-1-carboxylic acid]",3.5 ± 3.1%
11,"CCC(CC)O[C@@H]1C=C(C(=O)O)C[C@H](NCc2noc(-c3ccc(Cl)cc3)n2)[C@H]1NC(C)=O [Compound S12, (3R,4R,5S)-4-Acetamido-5-(((5-(4-chlorophenyl)-1,2,4-oxadiazol-3-yl)methyl)amino)-3-(pentan-3-yloxy)cyclohex-1-ene-1-carboxylic acid]",4.01 ± 5.9%
12,"CCC(CC)O[C@@H]1C=C(C(=O)O)C[C@H](NCc2noc(-c3c(F)cccc3F)n2)[C@H]1NC(C)=O [Compound S13, (3R,4R,5S)-4-acetamido-5-(((5-(2,6-difluorophenyl)-1,2,4-oxadiazol-3-yl)methyl)amino)-3-(pentan-3-yloxy)cyclohex-1-ene-1-carboxylic acid]",0.0 ± 2.6%
13,"CCC(CC)O[C@@H]1C=C(C(=O)O)C[C@H](NCc2ccc(-c3ccc(OC)cc3)o2)[C@H]1NC(C)=O [Compound S14, (3R,4R,5S)-4-Acetamido-5-(((5-(4-methoxyphenyl)furan-2-yl)methyl)amino)-3-(pentan-3-yloxy)cyclohex-1-ene-1-carboxylic acid]",14.7 ± 4.4%
14,"CCC(CC)O[C@@H]1C=C(C(=O)O)C[C@H](NCc2ccc(-c3ccc(F)cc3)o2)[C@H]1NC(C)=O [Compound S15, (3R,4R,5S)-4-Acetamido-5-(((5-(4-fluorophenyl)furan-2-yl)methyl)amino)-3-(pentan-3-yloxy)cyclohex-1-ene-1-carboxylic acid]",3.2 ± 3.7%
15,"CCC(CC)O[C@@H]1C=C(C(=O)O)C[C@H](NCc2ccc(-c3ccccc3C)o2)[C@H]1NC(C)=O [Compound S16, (3R,4R,5S)-4-Acetamido-3-(pentan-3-yloxy)-5-(((5-(o-tolyl)furan-2-yl)methyl)amino)cyclohex-1-ene-1-carboxylic acid]",8.4 ± 1.8%
16,"CCC(CC)O[C@@H]1C=C(C(=O)O)C[C@H](NCc2ccc(-c3cc(F)cc(F)c3)o2)[C@H]1NC(C)=O [Compound S17, (3R,4R,5S)-4-Acetamido-5-(((5-(3,5-difluorophenyl)furan-2-yl)methyl)amino)-3-(pentan-3-yloxy)cyclohex-1-ene-1-carboxylic acid]",3.7 ± 3.8%
17,"CCC(CC)O[C@@H]1C=C(C(=O)O)C[C@H](NCc2ccc(-c3ccc(OC)c(OC)c3)o2)[C@H]1NC(C)=O [Compound S18, (3R,4R,5S)-4-Acetamido-5-(((5-(3,4-dimethoxyphenyl)furan-2-yl)methyl)amino)-3-(pentan-3-yloxy)cyclohex-1-ene-1-carboxylic acid]",12.9 ± 1.2%
18,CCC(CC)O[C@@H]1C=C(C(=O)O)C[C@H](NCc2ccc(-c3cccc(Cl)c3)o2)[C@H]1NC(C)=O [Compound S19],5.5 ± 2.4%
19,"CCC(CC)O[C@@H]1C=C(C(=O)O)C[C@H](NCc2ccc(-c3ccsc3)o2)[C@H]1NC(C)=O [Compound S20, (3R,4R,5S)-4-Acetamido-3-(pentan-3-yloxy)-5-(((5-(thiophen-3-yl)furan-2-yl)methyl)amino)cyclohex-1-ene-1-carboxylic acid]",12.5 ± 2.3%
20,"CCC(CC)O[C@@H]1C=C(C(=O)O)C[C@H](NCc2ccc(-c3cc(Cl)ccc3C)o2)[C@H]1NC(C)=O [Compound S21, (3R,4R,5S)-4-acetamido-5-(((5-(5-chloro-2-methylphenyl)furan-2-yl)methyl)amino)-3-(pentan-3-yloxy)cyclohex-1-ene-1-carboxylic acid]",4.8 ± 1.1%
21,"CCC(CC)O[C@@H]1C=C(C(=O)O)C[C@H](NCc2ccc(-c3cccc4c3oc3ccccc34)o2)[C@H]1NC(C)=O [Compound S23, (3R,4R,5S)-4-acetamido-5-(((5-(dibenzo[b,d]furan-4-yl)furan-2-yl)methyl)amino)-3-(pentan-3-yloxy)cyclohex-1-ene-1-carboxylic acid]",10.9 ± 0.7%
